From PubChem BioAssay (NCI)
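Interpolation was linear, between the two tested concentrations surrounding the appropriate level; five concentrations were tested over 48 hours in 96-well plates. Here, GI50 denotes the concentration required for 50% inhibition of growth. Definition used: TGI = concentration required for complete inhibition of growth.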

Experiments:
Assay in all cases: NCI-60 cell line screen, 48 h; in the data active = GI50 below about 0.43 µM; inactive = the rest
[1] = tested on: UACC-62 melanoma
[2] = tested on: MDA-MB-231 breast
[3] = tested on: TK-10 renal
[4] = tested on: UACC-257 melanoma
[5] = tested on: MOLT-4 leukemia
[6] = tested on: NCI/ADR-RES ovarian
[7] = tested on: NCI-H522 lung
[8] = tested on: HCT-15 colon
[9] = tested on: SF-539 CNS
[10] = tested on: U251 CNS
[11] = tested on: OVCAR-3 ovarian
[12] = tested on: SK-MEL-5 melanoma
[13] = tested on: NCI-H460 lung
[14] = tested on: PC-3 prostate
[15] = tested on: OVCAR-8 ovarian
[16] = tested on: SW-620 colon
[17] = tested on: HL-60(TB) leukemia
[18] = tested on: DU-145 prostate
[19] = tested on: ACHN renal
[20] = tested on: SR leukemia
[21] = tested on: KM12 colon
[22] = tested on: HCC-2998 colon
[23] = tested on: K-562 leukemia
[24] = tested on: COLO 205 colon
[25] = tested on: OVCAR-5 ovarian
[26] = tested on: MDA-MB-435
[27] = tested on: IGROV1 ovarian
[28] = tested on: SN12C renal
[29] = tested on: SNB-75 CNS
[30] = tested on: A498 renal
[31] = tested on: NCI-H226 lung
[32] = tested on: HT29 colon
[33] = tested on: SF-295 CNS
[34] = tested on: M14 melanoma
[35] = tested on: SNB-19 CNS
[36] = tested on: CAKI-1 renal
[37] = tested on: RPMI-8226 leukemia
[38] = tested on: MCF7 breast
[39] = tested on: LOX IMVI melanoma
[40] = tested on: SK-OV-3 ovarian
[41] = tested on: SK-MEL-2 melanoma
[42] = tested on: UO-31 renal
[43] = tested on: HS 578T breast
[44] = tested on: HOP-92 NSCLC
[45] = tested on: SF-268 CNS
[46] = tested on: NCI-H23 lung
[47] = tested on: SK-MEL-28 melanoma
[48] = tested on: 786-0 renal
[49] = tested on: HOP-62 NSCLC
[50] = tested on: T-47D breast
[51] = tested on: OVCAR-4 ovarian
[52] = tested on: CCRF-CEM leukemia
[53] = tested on: A549 NSCLC
[54] = tested on: RXF 393 renal
[55] = tested on: MALME-3M melanoma

N=C(N)c1ccc(-c2ccc(-c3cc(Cl)cc(Cl)c3)o2)nc1
3.44 µM: TGI [21]
3.78 µM: TGI [24]
3.9 µM: TGI [41]
3.38 µM: TGI [26]
3.6 µM: TGI [38]
3.37 µM: TGI [18]
3.81 µM: TGI [6]
5.19 µM: TGI [31]
3.25 µM: TGI [9] | TGI [12] | TGI [14]
3.22 µM: TGI [30]
3.31 µM: TGI [10]
3.83 µM: TGI [15]
3.14 µM: TGI [44]
3.8 µM: TGI [22]
4.8 µM: TGI [20]
5.05 µM: TGI [5]
3.15 µM: TGI [29]
3.59 µM: TGI [4] | TGI [47]
3.41 µM: TGI [16] | TGI [39]
4.62 µM: TGI [17]
3.11 µM: TGI [42]
3.3 µM: TGI [2]
3.69 µM: TGI [32]
3.93 µM: TGI [43] | TGI [46]
3.36 µM: TGI [1] | TGI [19]
3.39 µM: TGI [11]
3.79 µM: TGI [27]
3.43 µM: TGI [25]
4.33 µM: TGI [37]
3.5 µM: TGI [3]
3.46 µM: TGI [8] | TGI [45]
3.1 µM: TGI [35]
3.35 µM: TGI [36]
3.51 µM: TGI [40]
3.86 µM: TGI [7]
inactive: GI50 [1] 1.78 µM | GI50 [2] 1.65 µM | GI50 [3] 1.87 µM | GI50 [4] 1.84 µM | GI50 [5] 2.46 µM | GI50 [6] 1.93 µM | GI50 [7] 1.98 µM | GI50 [8] 1.8 µM | GI50 [9] 1.76 µM | GI50 [10] 1.76 µM | GI50 [11] 1.88 µM | GI50 [12] 1.77 µM | GI50 [13] 1.9 µM | GI50 [14] 1.74 µM | GI50 [15] 1.88 µM | GI50 [16] 1.78 µM | GI50 [17] 2.42 µM | GI50 [18] 1.87 µM | GI50 [19] 1.81 µM | GI50 [20] 1.78 µM | GI50 [21] 1.85 µM | GI50 [22] 1.92 µM | GI50 [23] 1.5 µM | GI50 [24] 2.01 µM | GI50 [25] 1.73 µM | GI50 [26] 1.76 µM | GI50 [27] 2.09 µM | GI50 [28] 1.62 µM | GI50 [29] 1.64 µM | GI50 [30] 1.47 µM | GI50 [31] 2.13 µM | GI50 [32] 1.76 µM | GI50 [33] 1.92 µM | GI50 [34] 1.9 µM | GI50 [35] 1.63 µM | GI50 [36] 1.76 µM | GI50 [37] 2.03 µM | GI50 [38] 1.73 µM | GI50 [39] 1.77 µM | GI50 [40] 1.95 µM | GI50 [41] 2.09 µM | GI50 [42] 1.54 µM | GI50 [43] 1.87 µM | GI50 [44] 1.56 µM | GI50 [45] 1.82 µM | GI50 [46] 1.96 µM | GI50 [47] 1.8 µM
3.88 µM: TGI [23]
3.16 µM: TGI [28]
3.63 µM: TGI [13] | TGI [33] | TGI [34]

C=CCNc1nc(C#N)c(N)s1
> 10 µM: TGI [1] | TGI [48] | TGI [5] | TGI [6] | TGI [10] | TGI [12] | TGI [13] | TGI [16] | TGI [17] | TGI [19] | TGI [49] | TGI [20] | TGI [23] | TGI [24] | TGI [25] | TGI [26] | TGI [50] | TGI [27] | TGI [29] | TGI [51] | TGI [34] | TGI [52] | TGI [36] | TGI [37] | TGI [38] | TGI [40] | TGI [41] | TGI [53] | TGI [54] | TGI [44] | TGI [45] | TGI [55] | TGI [46] | TGI [47]
